The subject of the experiment is genotype Ib HCV replicon. The experiment can be described thus: HCV replicon luciferase assay, monotherapy and triple combination studies. In kind it is cell-based. Particulars: monotherapy, 3 days, Expt 1-3. An excerpt:
The HCV replicons used in these studies were generated at Bristol-Myers Squibb using the procedure described in WO2004014852. […] The functional replicon was then assembled in plasmid pGem9zf(+) (Promega, Madison, Wis.) using standard molecular biology techniques. To create a replicon encoding a luciferase reporter, the gene encoding humanized Renilla Luciferase protein was introduced upstream of the neomycin phosphotransferase gene.
HCV replicon cell lines were isolated from colonies as described by Lohman, et. al (Lohmann, V., F. Korner, J.-O. Koch, U. Herian, L. Theilmann, and R. Bartenschlager 1999, Science 285:110-113) and used for all experiments. Briefly, replicon clones were linearized with ScaI and RNA transcripts synthesized in vitro using the T7 MegaScript transcription kit (Ambion, Austin, Tex.) according to manufacturer's directions. […] After 24 h, selective media containing 0.5 mg/mL Geneticin (G418, Gibco-BRL, Rockville, Md.) was added and media was changed every 3 to 5 days. After approximately 4 weeks, cells were expanded for further analysis. Cells were maintained at 37° C. in DMEM (Gibco-BRL, Rockville, Md.) with 10% heat inactivated calf serum (Sigma), penicillin/streptomycin, and 0.5 mg/ml G418.
To determine compound efficacy, HCV replicon cells were plated at a density of 10^4 per well in 96-well plates in DMEM media containing 10% FBS. Following incubation overnight, compounds serially diluted in DMSO, or DMSO alone, were added to individual wells to a final DMSO concentration of 0.5%. Cell plates were then incubated at 37° C. for 3 days prior to assaying for cytotoxicity and HCV inhibition.
Plates were then washed two times with PBS and renilla luciferase activity assayed using a Dual-Glo Luciferase Assay System (Promega Corporation, Madison, Wis.) according to the manufacturer's directions. Plates were read on a TopCount NXT Microplate Scintillation and Luminescence Counter (Packard Instrument Company). The 50% effective concentration (EC50) was calculated by using Excel Fit (Version 2.0, Build 30).
Stock solutions, 200 times the desired final assay concentration, were prepared by 3-fold dilution in DMSO prior to addition to cells/media.
A general note: A replicon is a self-replicating genome or part of one, used to study replication in cells.

Where “and” joins values, the source holds several entries; their conditions need not be identical. Identical values can stand only once. Like-named read-outs stand apart in the source and are kept apart here.

The EC50 is the concentration giving half of the maximal effect.

With `C=C[C@@H]1C[C@]1(NC(=O)[C@@H]1C[C@@H](Oc2ncc(OC)c3ccc(Cl)cc23)CN1C(=O)[C@@H](NC(=O)OC(C)(C)C)C(C)(C)C)C(=O)NS(=O)(=O)C1CC1` [NS3 PI], the EC50 (Hepatitis C virus, 72 h, read-out: NS3 PI EC50) turned out to be 0.825 nM; the concentration for a half-maximal effect (EC50) (read-out: NS3 PI EC50) was 1.2 nM and 0.705 nM.

For the compound `COC(=O)N[C@H](C(=O)N1CCCC1c1ncc(-c2ccc(-c3ccc(-c4cnc(C5CCCN5C(=O)[C@@H](NC(=O)OC)C(C)C)[nH]4)cc3)cc2)[nH]1)C(C)C` (stereo partly shown) [NS5A Inhibitor], the concentration for a half-maximal effect (EC50) by setting is: (Hepatitis C virus, 72 h, read-out: NS5A Inhibitor EC50) 0.002 nM; (read-out: NS5A Inhibitor EC50) 0.003 nM.

The values above are taken from US20140235617A1, “Combinations of Hepatitis C Virus Inhibitors” (BRISTOL-MYERS SQUIBB COMPANY, priority 2010, published 2014).
